This is an account of results in patent US12673050B2, “Compositions and their use for the treatment of A1-antitrypsin deficiency” (Centessa Pharmaceuticals (UK) Limited, priority 2021, dated 2026).

Bounds are passed on as bounds.

For orientation: IC50 means the midpoint of a concentration-inhibition curve. The low end stands for higher potency, the high end for lower potency. What is called inhibition is the share of the control response that was lost under treatment.

One data set concerns the target human Z A1AT (Homo sapiens, UniProt P01009, E366K). As to the kind of experiment: Circulating human Z A1AT levels in huZ mice. Format: in vivo, mouse. More on the design: from tissue; host or cells: huZ transgenic mice (line Z11.03, C57Bl/6); expressed in liver, measured in plasma. The following applies: huZ mice, 5, 15 or 50 mg/kg twice a day by oral gavage for 14 days, plasma days 12-14. From the text: The huZ mouse (also referred to as the PiZZ mouse) is a transgenic mouse strain that contains multiple copies of the Z variant of the human A1AT gene, developed by two separate groups (Dycaico et al (Science (1988) 242:1409-12) and Carlson et al (J. Clin Invest (1989) 83:1183-90)). HuZ mice are on a C57Bl/6 background and express the human Z A1AT protein in liver tissue. The mice used in this study are from the progeny of Carlson and colleagues (transgenic line Z11.03). […]
HuZ mice (n=4/group: male or female) with basal human A1AT plasma levels of between 200-600 μg/ml were treated with either vehicle or (S)-1-((2-(trifluoromethyl)phenyl)sulfonyl)piperidine-3-carboxylic acid at 5, 15 or 50 mg/kg twice a day by oral gavage for 14 consecutive days. […] Human A1AT levels in mouse plasma samples were measured by ELISA (Human Serpin A1/α1 antitrypsin duo set ELISA, R& D Systems, DY1268) per manufacturer's instructions.
Briefly, a 96 well plate was coated with human A1AT capture antibody overnight at room temperature (1:180 dilution from stock, 100 μl final volume/well). […] After which, 50 μl stop solution (2M H2SO4) was added and optical density (OD) of each well was read at 450 nm with 570 nm blank subtracted from each well using a microplate reader. […]

Data set [1] deals with cardiac potassium (hERG) channels (Homo sapiens, UniProt Q12809). The data set is described as follows: hERG channel inhibition, Patchliner automated patch clamp. The following applies: 6-point curve, maximum 100 μM. The format is cell-based. How it is done: (§1) (S)-1-((2-(trifluoromethyl)phenyl)sulfonyl)piperidine-3-carboxylic acid was tested for inhibition of cardiac potassium (hERG) channels using the Patchliner automated patch clamp. 6-Point concentration-response curves were generated using half-log serial dilutions from a maximum final test concentration of 100 μM. IC50 values were obtained from a 4-parameter logistic fit of the concentration-response data. […] Reference compound values were consistent with those presented in the literature (Elkins et al., 2013 J. Pharm. Tox. Meth. 68:11-122).

The target of a further data set is hERG (Homo sapiens, UniProt Q12809). The description is as above. The note with it: human; at 100 μM. Format: cell-based. The method, then:
as §1

Chain of human Z A1AT (P01009 25-418 E366K): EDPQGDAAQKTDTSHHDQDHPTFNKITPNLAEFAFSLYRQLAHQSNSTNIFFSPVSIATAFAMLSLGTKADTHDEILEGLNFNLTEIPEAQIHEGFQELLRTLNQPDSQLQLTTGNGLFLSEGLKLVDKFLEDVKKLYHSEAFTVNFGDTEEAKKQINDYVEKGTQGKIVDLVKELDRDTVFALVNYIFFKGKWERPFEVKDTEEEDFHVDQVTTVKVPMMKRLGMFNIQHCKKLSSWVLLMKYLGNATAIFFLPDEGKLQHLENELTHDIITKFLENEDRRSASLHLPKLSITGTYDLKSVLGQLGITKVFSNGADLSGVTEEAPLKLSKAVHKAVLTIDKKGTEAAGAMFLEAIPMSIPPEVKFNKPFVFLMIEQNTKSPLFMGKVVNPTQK
Chain of cardiac potassium (hERG) channels (Q12809 whole entry): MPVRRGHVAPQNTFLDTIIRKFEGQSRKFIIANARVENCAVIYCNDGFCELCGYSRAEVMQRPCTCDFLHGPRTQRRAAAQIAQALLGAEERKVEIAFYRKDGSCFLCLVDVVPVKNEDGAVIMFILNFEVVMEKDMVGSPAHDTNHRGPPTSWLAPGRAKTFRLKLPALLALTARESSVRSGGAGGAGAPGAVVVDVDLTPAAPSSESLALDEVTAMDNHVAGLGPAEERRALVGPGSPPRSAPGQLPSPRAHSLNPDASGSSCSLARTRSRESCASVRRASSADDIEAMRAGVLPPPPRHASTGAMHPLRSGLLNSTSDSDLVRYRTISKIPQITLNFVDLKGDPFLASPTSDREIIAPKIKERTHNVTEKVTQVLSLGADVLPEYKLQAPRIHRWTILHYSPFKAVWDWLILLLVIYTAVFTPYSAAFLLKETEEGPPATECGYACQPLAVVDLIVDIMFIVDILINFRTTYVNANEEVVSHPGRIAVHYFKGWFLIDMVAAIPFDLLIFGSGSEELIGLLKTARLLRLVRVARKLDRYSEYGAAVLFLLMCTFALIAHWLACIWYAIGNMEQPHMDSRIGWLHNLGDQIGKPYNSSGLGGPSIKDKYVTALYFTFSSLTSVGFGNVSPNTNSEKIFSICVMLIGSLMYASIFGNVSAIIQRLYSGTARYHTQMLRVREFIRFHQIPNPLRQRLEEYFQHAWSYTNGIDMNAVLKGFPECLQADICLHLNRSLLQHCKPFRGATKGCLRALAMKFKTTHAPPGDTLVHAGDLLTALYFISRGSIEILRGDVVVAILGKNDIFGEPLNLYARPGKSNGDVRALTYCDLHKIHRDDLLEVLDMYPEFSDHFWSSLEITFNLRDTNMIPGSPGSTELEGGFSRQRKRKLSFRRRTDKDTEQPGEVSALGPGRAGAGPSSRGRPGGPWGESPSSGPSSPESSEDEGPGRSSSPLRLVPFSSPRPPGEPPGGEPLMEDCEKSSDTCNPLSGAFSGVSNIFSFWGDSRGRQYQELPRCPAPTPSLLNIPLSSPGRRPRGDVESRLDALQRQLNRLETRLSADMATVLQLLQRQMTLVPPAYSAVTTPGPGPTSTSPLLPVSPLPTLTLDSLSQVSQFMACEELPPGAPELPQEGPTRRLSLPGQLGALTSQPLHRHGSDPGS
Chain of hERG (Q12809 whole entry): as above

Turning to `O=C(O)[C@H]1CCCN(S(=O)(=O)c2ccccc2C(F)(F)F)C1` [(S)-1-((2-(Trifluoromethyl)phenyl)sulfonyl)piperidine-3-carboxylic acid], on human Z A1AT, the “circulating human Z A1AT compared to baseline levels” value was “stimulates secretion of human Z A1AT compared to baseline levels in huZ mice in a dose dependent manner”. For the same compound, the IC50 in data set [1] is above 100 µM. This compound returned an inhibition at 100 µM on hERG of 7%.
